In publication PMC10096129, “Rational Design and Lead Optimisation of Potent Antimalarial Quinazolinediones and Their Cytotoxicity against MCF-7” (Molecules, 2023):
Like-named read-outs stand apart in the source and are kept apart here.

Experiments:
MCF-7 cells = assay: Antiproliferative assay against MCF-7 (MTT, 72 h); format: cell-based, Human; settings: for IC50: Homo sapiens, MCF7, MCF-7 cells, 72 h, MTT; for cytotoxicity against MCF-7 cells, in words: compared with the parent compound
Experimental: Human breast cancer cells (MCF-7) purchased from ATCC were seeded at 2 × 10^3 cells/well on a 96-well black flat-bottom plate and were cultured in high-glucose DMEM (Dulbecco’s modified Eagle medium) supplemented with 10% fetal bovine serum and 1% penicillin/streptomycin. The culture was incubated at 37 °C, 5% CO2 for 24 h. After the incubation period, the test compounds were added into the cell plate at serially diluted concentrations (20, 2, 0.2, 0.02, 0.002, and 0.0002 μM), and the culture was incubated for 72 h at 37 °C, 5% CO2. After the 72 h incubation, the cultured media containing compounds were removed, and the serum-free media containing MTT were added to the same well with additional incubation for 3 h at 37 °C, 5% CO2. After 3 h incubation, the serum-free media containing MTT were removed, and DMSO was added into the same well; the resulting solution was measured for its absorbance at 570 nm using a Multimode Microplate Reader (ENVISION) (PerkinElmer, USA). The IC50 value was calculated using GraphPad. Doxorubicin at 10 µM was used as a positive control in this assay.

P. falciparum 3D7 [1] = assay: Antimalarial assay against P. falciparum 3D7 (48 h growth, DNA fluorescent dye); format: cell-based, Plasmodium falciparum; settings: for IC50: Plasmodium falciparum
Experimental: Plasmodium falciparum strain 3D7 was cultured in complete medium (RPMI-1640 supplemented with 10% Albumax II) using O Rh^+ red blood cells in a microaerobic environment (5% CO2, 5% O2, 90% N2). IC50 assay plates were prepared using fourfold serially diluted test compounds in complete medium to a final volume of 50 μL. Then, 50 μL of parasite inoculum at 2% parasitemia ring stage and 1% hematocrit was added to each well and incubated for 48 h in a microaerobic environment. The assay was terminated by freezing at -20 °C before growth measurement. Parasite growth was measured adding 100 μL of lysis buffer supplemented with 1× DNA fluorescent dye (UltraPower, […], Tokyo, Japan), and the fluorescent signal was measured at 495/530 nm. The IC50 value was calculated by GraphPad Prism 9.0 software (La Jolla, California, USA) using the dose-response (four-parameter) function. Artemisinin at 1 μM and complete medium were used as positive and negative controls, respectively.

[2] = system: human ovarian cancer (SKOV3); design: method as in earlier work; settings: patent; cited from earlier work
P. falciparum strains = system: P. falciparum strains; design: method as in PMID 24900261, PMID 26317851, PMID 28513586; settings: multiple stages of the malaria parasite; cited from earlier work
P. falciparum 3D7 [3] = system: P. falciparum 3D7; design: method as in doi:10.3390/M1358; settings: earlier report of the group; read-out: IC50 against P. falciparum 3D7; cited from earlier work
[4] = Table 3, blood-stage P. falciparum 3D7, various amine side chains, read-out: IC50 (µM) 3D7 ± SD
[5] = Table 2, blood-stage P. falciparum 3D7, various amino-acid linkers, read-out: IC50 (µM) 3D7 ± SD
[6] = P. falciparum 3D7, read-out: antimalarial activity against 3D7

IC50 (MCF-7 cells) [µM]	IC50 (P. falciparum 3D7 [1]; [4]) [µM]	IC50 (P. falciparum 3D7 [1]; [5]) [µM]	SMILES	antimalarial activity against 3D7, in words (P. falciparum 3D7 [1]; P. falciparum 3D7)	other results
> 20	0.406 ± 0.034	–	CC(C)[C@@H](C(=O)Nc1ccc(Cl)c(Cl)c1)n1c(=O)[nH]c2ccccc2c1=O [Compound 26]	less potent antimalarial	cytotoxicity against MCF-7 cells, in words (MCF-7 cells): slightly higher cytotoxicity
> 20	0.607 ± 0.03	–	CC(C)[C@@H](C(=O)Nc1ccccc1)n1c(=O)[nH]c2ccccc2c1=O [Compound 18]	dramatic loss in the antimalarial activity	–
> 20	0.059 ± 0.012	–	CC(C)[C@@H](C(=O)Nc1ccc(F)c(Cl)c1)n1c(=O)[nH]c2ccccc2c1=O [Compound 27]	–	–
–	–	–	CCOC(=O)c1sc(NC(=O)[C@H](C(C)C)n2c(=O)[nH]c3ccccc3c2=O)nc1OC [Compound 3]	–	cytotoxicity against SKOV3, in words [2]: highly potent cytotoxicity
> 20	> 10	–	COc1ccc(NC(=O)[C@H](C(C)C)n2c(=O)[nH]c3ccccc3c2=O)cc1 [Compound 29]	dramatic loss in the antimalarial activity	–
9.74	0.038 ± 0.009	–	CC(C)[C@@H](C(=O)Nc1ccc(F)c(F)c1)n1c(=O)[nH]c2ccccc2c1=O [Compound 23]	–	cytotoxicity against MCF-7 cells, in words (MCF-7 cells): slightly higher cytotoxicity
10.5	0.711 ± 0.038	–	CC(C)[C@@H](C(=O)Nc1ccc(Cl)cc1)n1c(=O)[nH]c2ccccc2c1=O [Compound 25]	good antimalarial activity	–
> 20	0.022 ± 0.005	–	CC(C)[C@@H](C(=O)Nc1cccc(Cl)c1)n1c(=O)[nH]c2ccccc2c1=O [Compound 24]	excellent activity	–
–	–	> 10	COc1cccc(NC(=O)[C@H](C)n2c(=O)[nH]c3ccccc3c2=O)c1 [Compound 6]	–	–
–	–	–	COc1ccccc1CNC(=O)CCn1c(=O)[nH]c2ccsc2c1=O [MMV019066]	–	parasite growth inhibitory activity (P. falciparum strains): < 1 µM
> 20	> 10	–	CC(C)[C@@H](C(=O)NCc1ccccc1)n1c(=O)[nH]c2ccccc2c1=O [Compound 28]	dramatic loss in the antimalarial activity	–
> 20	0.36 ± 0.034	–	CC(C)[C@@H](C(=O)Nc1ccc(F)cc1)n1c(=O)[nH]c2ccccc2c1=O [Compound 22]	good antimalarial activity	–
–	–	> 10	COc1cccc(NC(=O)Cn2c(=O)[nH]c3ccccc3c2=O)c1 [Compound 5]	–	–
17.5	–	0.219 ± 0.024	COc1cccc(NC(=O)[C@H](C(C)C)n2c(=O)[nH]c3ccccc3c2=O)c1 [Compound 2]	–	IC50 (P. falciparum 3D7 [3]): ~200 nM
–	–	1.11 ± 0.1	CCC[C@@H](C(=O)Nc1cccc(OC)c1)n1c(=O)[nH]c2ccccc2c1=O [Compound 9]	–	IC50 (P. falciparum 3D7 [1]; [6]): 1 to 3 µM
> 20	0.036 ± 0.005	–	CC(C)[C@@H](C(=O)Nc1cccc(F)c1)n1c(=O)[nH]c2ccccc2c1=O [Compound 21]	excellent activity	–
–	–	–	COc1ccccc1CNC(=O)CCn1c(=O)[nH]c2ccccc2c1=O [MMV665916]	–	parasite growth inhibitory activity (P. falciparum strains): < 1 µM
–	–	3.25 ± 0.21	COc1cccc(NC(=O)[C@H](CC(C)C)n2c(=O)[nH]c3ccccc3c2=O)c1 [Compound 7]	–	IC50 (P. falciparum 3D7 [1]; [6]): 1 to 3 µM
–	–	0.586 ± 0.032	CCC(C(=O)Nc1cccc(OC)c1)n1c(=O)[nH]c2ccccc2c1=O (stereo not drawn) [Compound 8]	potent sub-micromolar activity	–
> 20	1.41 ± 0.115	–	CC(C)[C@@H](C(=O)Nc1ccncc1)n1c(=O)[nH]c2ccccc2c1=O [Compound 20]	decrease in antimalarial activity	–
–	–	> 10	COc1cccc(NCCn2c(=O)[nH]c3ccccc3c2=O)c1 [Compound 4]	–	–
> 20	2.89 ± 0.401	–	CC(C)[C@@H](C(=O)Nc1cccnc1)n1c(=O)[nH]c2ccccc2c1=O [Compound 19]	decrease in antimalarial activity	–
